Laboratory results: paper PMC11923649, “Novel C-2 Aromatic Heterocycle-Substituted Triterpenoids Inhibit Hedgehog Signaling in GLI1 Overexpression Cancer Cells” (ACS Omega, 2025)

What was measured:
[1] = test system: Gli1 protein in A549 cells; assay: Western blot of Gli1 in A549 cells, 24 h; assay type: cell-based, human; conditions: A549, 24 h, immunoblot
Procedure: (§1) In order to verify that compounds 11a and 11b inhibit the proliferation of A549 and DU-145 through Hh inhibition, we monitored the expression of Hh target genes in these cell lines (Figure 2). […] The decreased protein expression of Gli1 targets Cyclin D1, N-Myc, and Bcl-2 strongly indicates inhibition of its transcriptional activity, and their downregulation correlates with the data obtained by the U-87 MG-Gli-FLuc reporter assay. Importantly, these proteins are involved in cell cycle progression, proliferation, and survival. N-Myc amplification or deregulation of transcription, stability, and degradation is associated with many malignancies,[34] and the observed downregulation induced by 11a and 11b may reduce its oncogenic effect.
(§2) Figure 2 Effect of compounds 11a and 11b on the protein expression of the Gli1 transcription factor and its transcriptional targets in A549 (A) and DU145 (B) cells following 24 h of incubation. […]
(§3) Cells were washed with PBS and lysed on ice in 200 μL of RIPA (Radioimmunoprecipitation Assay) buffer for 30 min. Then, cell lysates were clarified by centrifugation (15000 rpm, 20 min, 4 °C), and the protein concentration in the collected supernatants was determined using a BCA method (Bicinchoninic Acid test). […] Luminescence signal detection was performed by using an Odyssey FC instrument (LI-COR Biosciences).

[2] = test system: Gli1 protein in DU-145 cells; assay: Western blot of Gli1 in DU-145 cells, 24 h; assay type: cell-based, human; conditions: DU-145, 24 h, immunoblot
Procedure: as §1, §2, §3

K562-TAX = assay: MTS cytotoxicity assay, 72 h, K562-TAX; assay type: cell-based

Structure (SMILES)	Endogenous Gli1 protein level [1]	Endogenous Gli1 protein level [2]	IC50 (K562-TAX; Table 1) [µM]	IC50 (K562-TAX; full Table S1) [µM]
C=C(C)[C@@H]1CC[C@]2(C(=O)O)CC[C@]3(C)C(CCC4[C@@]5(C)C=C(c6ccoc6)C(=O)C(C)(C)C5CC[C@]43C)C12 (some centres unmarked) [Compound 11b, 2-(Furan-3-yl)-3-oxolupa-1,20(29)-dien-28-oic acid]	inhibit the endogenous Gli1 protein level in a dose-dependent manner	inhibit the endogenous Gli1 protein level in a dose-dependent manner	16	15.8
C=C(C)[C@@H]1CC[C@]2(C(=O)O)CC[C@]3(C)C(CCC4[C@@]5(C)C=C(c6ccco6)C(=O)C(C)(C)C5CC[C@]43C)C12 (some centres unmarked) [Compound 11a, 2-(Furan-2-yl)-3-oxolupa-1,20(29)-dien-28-oic acid]	inhibit the endogenous Gli1 protein level in a dose-dependent manner	inhibit the endogenous Gli1 protein level in a dose-dependent manner	14	13.7
